In patent US5331006A, “Amino acid analogs as CCK antagonists” (Warner-Lambert Company, priority 1991, dated 1994):
Where two headings read alike, the source gives them in different places.

Target: T1, CCK receptor sites (Mus musculus, UniProt P56481)
T1 construct: from tissue; host or cells: cerebral cortex membranes of male CFLP mice
T1 sequence (P56481 1-453): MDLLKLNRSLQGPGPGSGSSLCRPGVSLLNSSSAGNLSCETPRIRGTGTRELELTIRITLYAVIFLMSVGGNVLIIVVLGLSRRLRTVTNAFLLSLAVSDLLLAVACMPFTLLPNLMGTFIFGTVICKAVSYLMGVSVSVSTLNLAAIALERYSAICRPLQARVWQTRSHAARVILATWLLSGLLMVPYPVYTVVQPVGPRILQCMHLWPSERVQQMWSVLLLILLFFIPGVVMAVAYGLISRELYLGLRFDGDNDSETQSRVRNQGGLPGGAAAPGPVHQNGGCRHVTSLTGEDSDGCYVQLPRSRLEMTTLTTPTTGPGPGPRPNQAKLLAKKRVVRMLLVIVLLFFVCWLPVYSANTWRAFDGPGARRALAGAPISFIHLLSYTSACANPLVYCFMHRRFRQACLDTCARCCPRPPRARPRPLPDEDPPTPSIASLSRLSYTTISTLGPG
Assay: CCK receptor binding, displacement of tritiated pentagastrin from mouse cerebral cortex membranes
Design: key: IA = Inactive in respect to this binding assay
Settings: 2 nM tritiated pentagastrin, mouse cerebral cortical membranes, Ki from IC50 by Cheng-Prusoff
Procedure: The biological activity of compounds of the present invention was evaluated employing an initial screening test which rapidly and accurately measured the binding of the tested compound to known CCK receptor sites. […] (See Hays, et al, Neuropeptides 1:53-62, 1980; and Satuer, et al, Science 208:1155-1156, 1980.)
In this screening test the cerebral cortices taken from male CFLP mice weighing between 30 to 40 g were dissected on ice, weighed, and homogenized in 10 volumes of 50 mM Tris-HCl buffer (pH 7.4 at 0° to 4° C.). The resulting suspension was centrifuged, the supernate was discarded, and the pellet was washed by resuspension in Tris-HCl buffer followed by recentrifugation. The final pellet was resuspended in 20 volumes of […] Hepes buffer (pH 7.2 at 23° C.) containing 130 mM NaCl, […] KCl, […] MgCl2, […] EDTA, 5 mg/mL bovine albumin, and bacitracin (0.25 mg/mL).
In saturation studies, cerebral cortical membranes were incubated at 23° C. for 120 minutes in a final volume of 500 μL of Hepes incubation buffer (pH 7.2) together with 0.2-20 nM tritiated-pentagastrin (Amersham International, England).
In the displacement experiments, membranes were incubated with a single concentration (2 nM) of ligand, together with increasing concentrations of competitive test compound. In each case, the nonspecific binding was defined as that persisting in the presence of the unlabeled octapeptide CCK26-33 (10^-6 M).
Following incubation, radioactivity bound to membranes was separated from that free in solution by rapid filtration through Whatman GF/B filters and washed three times with 4 mL of ice cold Tris-HCl buffer. Filters from samples incubated with tritiated pentagastrin were placed in polyethylene vials with 4 mL of scintillation cocktail, and the radioactivity was estimated by liquid scintillation spectrometry (efficiency 47% to 52%).
The specific binding to CCK receptor sites was defined as the total bound tritiated pentagastrin minus the amount of tritiated pentagastrin bound in the presence of 10^-6 octapeptide, CCK26-33.
Saturation curves for specific tritiated pentagastrin binding to mouse cortical membranes were analyzed by the methods of Scatchard (Ann. New York Acad. Sci. 51:660-672, 1949; Hill, J. Physiol. 40:IV-VIII, 1910) to provide estimates for the maximum number of binding sites (βmax)and the equilibrium dissociation constant (Ka).
In displacement experiments, inhibition curves were analyzed by either logit-log plots or the iterative curve fitting computer program ALLFIT (DeLean, Munson, and Redbard, 1978) to provide estimates of the IC50 and nH (apparent Hill coefficient) values). IC50 values were defined as the concentration of test compound required to produce 50% inhibition of specific binding).
The inhibition constant (Ki) of the test compound was then calculated according to the Cheng-Prusoff equation: [formula] where [L] is the concentration of radiolabel and Ka is the equilibrium dissociation constant.
The Ki values for several representative compounds of the present invention are present in Table II.

Structure (SMILES) | Ki (read-out: Ki) [nM] | Ki
CC(Cc1c[nH]c2ncccc12)(NC(=O)OC1C2CC3CC(C2)CC1C3)C(=O)NC(CO)C(O)c1ccccc1 (stereo not shown) [drawing 66 (Diast I)] | 580 | 
CC(Cc1c[nH]c2ncccc12)(NC(=O)OC1C2CC3CC(C2)CC1C3)C(=O)NC(CO)C(O)c1ccccc1 (stereo not shown) [drawing 66 (Diast II)] | 43 | 
CC(Cc1c[nH]c2ccncc12)(NC(=O)OC1C2CC3CC(C2)CC1C3)C(=O)NC(CO)C(O)c1ccccc1 (stereo not shown) [drawing 67] |  | IA
CC(Cc1c[nH]c2ccncc12)(NC(=O)OC1C2CC3CC(C2)CC1C3)C(=O)NC(CO)C(O)c1ccccc1 (stereo not shown) [drawing 69] | 2300 | 
